Here are results for 14 compounds from patent US7838498B2, “Benzylic glycoside derivatives and methods of use” (Theracos, Inc., priority 2007, dated 2010).

In one assay the target is T1, human SGLT2 (Homo sapiens, UniProt P31639).
T1 construct: A full-length cDNA clone expressing human SGLT2 (GenScript Corporation) was subcloned
T1 sequence (P31639 1-672): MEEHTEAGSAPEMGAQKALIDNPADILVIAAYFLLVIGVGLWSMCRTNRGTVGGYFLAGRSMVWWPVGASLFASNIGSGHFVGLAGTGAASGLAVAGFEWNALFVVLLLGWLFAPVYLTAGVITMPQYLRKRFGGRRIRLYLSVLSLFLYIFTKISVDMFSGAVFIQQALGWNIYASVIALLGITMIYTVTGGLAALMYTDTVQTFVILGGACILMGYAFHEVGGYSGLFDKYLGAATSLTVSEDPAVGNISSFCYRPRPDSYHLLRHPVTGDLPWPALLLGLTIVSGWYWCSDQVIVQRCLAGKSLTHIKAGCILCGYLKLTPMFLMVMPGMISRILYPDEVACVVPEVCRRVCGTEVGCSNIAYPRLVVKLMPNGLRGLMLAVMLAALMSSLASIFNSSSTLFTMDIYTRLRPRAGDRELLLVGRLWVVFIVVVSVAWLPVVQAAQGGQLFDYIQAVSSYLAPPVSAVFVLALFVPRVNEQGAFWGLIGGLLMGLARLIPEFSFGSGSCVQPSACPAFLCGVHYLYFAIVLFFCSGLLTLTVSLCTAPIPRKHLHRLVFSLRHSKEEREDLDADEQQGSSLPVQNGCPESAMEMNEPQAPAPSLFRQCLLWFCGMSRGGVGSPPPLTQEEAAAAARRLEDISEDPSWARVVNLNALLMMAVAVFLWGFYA
The experiment in a line: Methyl-α-D-[U-14C]glucopyranoside uptake assay, cells stably expressing human SGLT2. It is filed as cell-based. To be noted: HEK293.ETN cells expressing human SGLT2, 1.5 h incubation. The source says:
A full-length cDNA clone expressing human SGLT2 (GenScript Corporation) was subcloned into […] and Not I sites of pEAK15 expression vector. Clones harboring the cDNA inserts were identified by restriction analysis.
Plasmid containing human SGLT2 was linearized with Nsi I and purified by agarose gel electrophoresis. Using Lipofectamine 2000 Transfection Reagent (Invitrogen Corporation), DNA was transfected into HEK293.ETN cells and cultured in Dulbecco's Modified Eagle Medium (DMEM) containing 10% fetal bovine serum (FBS) at 37° C. under 5% CO2 for 24 h. Transfectants were selected in the same growth medium supplemented with puromycin (Invitrogen Corporation) for two weeks. Puromycin-resistant cells were recovered and seeded on a fresh 96-well plate (single cell per well) and cultured in the presence of puromycin until cells became confluent. Puromycin-resistant clones were evaluated for SGLT2 activity in the methyl-α-D-[U-^14C]glucopyranoside uptake assay described below.
(§1) Cells expressing SGLT1 or SGLT2 were seeded on 96-well ScintiPlate scintillating plates (PerkinElmer, Inc.) in DMEM containing 10% FBS (1×10^5 cells per well in 100 μL medium) incubated at 37° C. under 5% CO2 for 48 h prior to the assay. Cells were washed twice with 150 μL of either sodium buffer (137 mM NaCl, 5.4 mM KCl, 2.8 mM CaCl2, 1.2 mM MgCl2, 10 mM tris(hydroxymethyl)aminomethane/N2-hydroxyethylpiperazine-N′-ethanesulfonic acid [Tris/Hepes], pH 7.2) or sodium-free buffer (137 mM N-methyl-glucamine, 5.4 mM KCl, 2.8 mM CaCl2, 1.2 mM MgCl2, 10 mM Tris/Hepes, pH 7.2). Test compound in 50 μL each of sodium or sodium-free buffer containing 40 μCi/L methyl-α-D-[U-^14C]glucopyranoside (Amersham Biosciences/GE Healthcare), either with (symbols in parentheses) or without (symbols without parentheses) 25% human serum, was added per well of a 96-well plate and incubated at 37° C. with shaking for either 2 h (SGLT1 assay) or 1.5 h (SGLT2 assay). Cells were washed twice with 150 μL of wash buffer (137 mM N-methylglucamine, 10 mM Tris/Hepes, pH 7.2) and methyl-α-D-[U-^14C]glucopyranoside uptake was quantitated using a TopCount scintillation counter (PerkinElmer, Inc.). Sodium-dependent glucopyranoside uptake was measured by subtracting the values obtained with sodium-free buffer from those obtained using sodium buffer (average of triplicate determinations).

A further assay has as its target T2, human SGLT1 (Homo sapiens, UniProt P13866).
T2 construct: Full-length human SGLT1 cDNA on pDream2.1 expression vector was obtained from GenScript Corporation; host or cells: COS-7 cells (American Type Culture Collection)
T2 sequence (P13866 1-664): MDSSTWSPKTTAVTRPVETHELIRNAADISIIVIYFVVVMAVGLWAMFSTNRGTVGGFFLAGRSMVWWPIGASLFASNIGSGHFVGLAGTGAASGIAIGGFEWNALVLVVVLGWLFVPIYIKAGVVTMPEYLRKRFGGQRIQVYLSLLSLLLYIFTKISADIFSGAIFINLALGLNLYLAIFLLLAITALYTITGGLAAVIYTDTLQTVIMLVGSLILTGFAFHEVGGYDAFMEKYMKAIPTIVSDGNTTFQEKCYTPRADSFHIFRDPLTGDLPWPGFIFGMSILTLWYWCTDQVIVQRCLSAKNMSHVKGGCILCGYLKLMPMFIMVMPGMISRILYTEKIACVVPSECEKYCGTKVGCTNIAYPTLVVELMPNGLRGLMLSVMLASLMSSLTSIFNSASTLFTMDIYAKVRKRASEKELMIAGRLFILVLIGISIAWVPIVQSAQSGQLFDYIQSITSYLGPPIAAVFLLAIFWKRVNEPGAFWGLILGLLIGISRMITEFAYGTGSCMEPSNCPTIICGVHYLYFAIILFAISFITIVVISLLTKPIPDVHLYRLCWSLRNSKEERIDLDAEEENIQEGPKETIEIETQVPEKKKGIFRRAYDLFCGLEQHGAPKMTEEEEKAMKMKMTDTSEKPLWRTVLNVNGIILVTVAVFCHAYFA
Nature of the assay: Methyl-α-D-[U-14C]glucopyranoside uptake assay, COS-7 cells expressing human SGLT1. It is filed as cell-based. Conditions: COS-7 cells expressing human SGLT1, 2 h incubation. As to the method: Full-length human SGLT1 cDNA on pDream2.1 expression vector was obtained from GenScript Corporation and propagated in Escherichia coli strain DH5α using Luria-Bertani (LB) medium containing ampicillin. Plasmid DNA was isolated using the QIAGEN Plasmid Midi Kit (QIAGEN Inc.). […] Transfected cells were stored in DMEM containing 10% dimethyl sulfoxide (DMSO) at −80° C.
as §1

Setting [1] is: without human serum (symbols without parentheses).
The mark [2] stands for this setting: with 25% human serum (symbols in parentheses).

The IC50 is the midpoint of a concentration-inhibition curve. In the case of `C=CCOCCc1cc(Cl)c(Cc2ccc(CC)cc2)cc1[C@@H]1O[C@H](CO)[C@@H](O)[C@H](O)[C@H]1O` [Compound AD, (2S,3R,4R,5S,6R)-2-(2-(2-(allyloxy)ethyl)-4-chloro-5-(4-ethylbenzyl)phenyl)-6-(hydroxymethyl)tetrahydro-2H-pyran-3,4,5-triol], the IC50 on human SGLT2 (setting [1]) is less than 1 µM; on human SGLT1 (setting [1]), more than 10 µM.

On to `CCc1ccc(Cc2cc([C@@H]3O[C@H](CO)[C@@H](O)[C@H](O)[C@H]3O)c(CCOCCO)cc2Cl)cc1` [Compound AG, (2S,3R,4R,5S,6R)-2-(4-chloro-5-(4-ethylbenzyl)-2-(2-(2-hydroxyethoxy)ethyl)phenyl)-6-(hydroxymethyl)tetrahydro-2H-pyran-3,4,5-triol], for which the figures for the IC50 on human SGLT2 (setting [1]) and at human SGLT1 (setting [1]) were less than 1 µM and 1 to 10 µM, respectively.

As to `CCc1ccc(Cc2cc([C@@H]3O[C@H](CO)[C@@H](O)[C@H](O)[C@H]3O)c(CCOCCF)cc2Cl)cc1` [Compound AH, (2S,3R,4R,5S,6R)-2-(4-chloro-5-(4-ethylbenzyl)-2-(2-(2-fluoroethoxy)ethyl)phenyl)-6-(hydroxymethyl)tetrahydro-2H-pyran-3,4,5-triol], the IC50 on human SGLT2 (setting [1]) is less than 1 µM; at human SGLT1 (setting [1]), 1 to 10 µM.

Regarding `CCc1ccc(Cc2cc([C@@H]3O[C@H](CO)[C@@H](O)[C@H](O)[C@H]3O)c(CCOCC(F)F)cc2Cl)cc1` [Compound AI, (2S,3R,4R,5S,6R)-2-(4-chloro-2-(2-(2,2-difluoroethoxy)ethyl)-5-(4-ethylbenzyl)phenyl)-6-(hydroxymethyl)tetrahydro-2H-pyran-3,4,5-triol], the IC50 was less than 1 µM at human SGLT2 (setting [1]) and more than 10 µM on human SGLT1 (setting [1]).

As to `CCc1ccc(Cc2cc([C@@H]3O[C@H](CO)[C@@H](O)[C@H](O)[C@H]3O)c(CCOCC(F)(F)F)cc2Cl)cc1` [Compound AK, (2S,3R,4R,5S,6R)-2-(4-chloro-5-(4-ethylbenzyl)-2-(2-(2,2,2-trifluoroethoxy)ethyl)phenyl)-6-(hydroxymethyl)tetrahydro-2H-pyran-3,4,5-triol], the IC50 was less than 1 µM at human SGLT2 (setting [1]) and more than 10 µM on human SGLT1 (setting [1]).

As to `CCc1ccc(Cc2cc([C@@H]3O[C@H](CO)[C@@H](O)[C@H](O)[C@H]3O)c(COCCCO)cc2Cl)cc1` [Compound AL, (2S,3R,4R,5S,6R)-2-(4-chloro-5-(4-ethylbenzyl)-2-((3-hydroxypropoxy)methyl)phenyl)-6-(hydroxymethyl)tetrahydro-2H-pyran-3,4,5-triol], the IC50 was less than 1 µM at human SGLT2 (setting [1]) and more than 10 µM at human SGLT1 (setting [1]).

Consider `C#CCOCCc1cc(Cl)c(Cc2ccc(CC)cc2)cc1[C@@H]1O[C@H](CO)[C@@H](O)[C@H](O)[C@H]1O` [Compound AM, (2S,3R,4R,5S,6R)-2-(4-chloro-5-(4-ethylbenzyl)-2-(2-(prop-2-ynyloxy)ethyl)phenyl)-6-(hydroxymethyl)tetrahydro-2H-pyran-3,4,5-triol], for which the IC50 is less than 1 µM on human SGLT2 (setting [1]) and more than 10 µM on human SGLT1 (setting [1]).

As for `CC#CCOCCc1cc(Cl)c(Cc2ccc(CC)cc2)cc1[C@@H]1O[C@H](CO)[C@@H](O)[C@H](O)[C@H]1O` [Compound AN, (2S,3R,4R,5S,6R)-2-(2-(2-(but-2-ynyloxy)ethyl)-4-chloro-5-(4-ethylbenzyl)phenyl)-6-(hydroxymethyl)tetrahydro-2H-pyran-3,4,5-triol], the half-inhibitory concentration (IC50) on human SGLT2 (setting [1]) is less than 1 µM; on human SGLT1 (setting [1]), 1 to 10 µM.

Regarding `C#CCOCCc1cc(Cl)c(Cc2ccc(OCC)cc2)cc1[C@@H]1O[C@H](CO)[C@@H](O)[C@H](O)[C@H]1O` [Compound AO, (2S,3R,4R,5S,6R)-2-(4-chloro-5-(4-ethoxybenzyl)-2-(2-(prop-2-ynyloxy)ethyl)phenyl)-6-(hydroxymethyl)tetrahydro-2H-pyran-3,4,5-triol], the IC50 was less than 1 µM on human SGLT2 (setting [1]) and more than 10 µM on human SGLT1 (setting [1]).

In the case of `C=CCOCCOc1cc(Cl)c(Cc2ccc(CC)cc2)cc1[C@@H]1O[C@H](CO)[C@@H](O)[C@H](O)[C@H]1O` [Compound AW, (2S,3R,4R,5S,6R)-2-(2-(2-(allyloxy)ethoxy)-4-chloro-5-(4-ethylbenzyl)phenyl)-6-(hydroxymethyl)tetrahydro-2H-pyran-3,4,5-triol], the IC50 at human SGLT2 (setting [1]) is less than 1 µM; on human SGLT1 (setting [1]), more than 10 µM.

Take `CC#CCOCc1cc(Cl)c(Cc2ccc(CC)cc2)cc1[C@@H]1O[C@H](CO)[C@@H](O)[C@H](O)[C@H]1O` [Compound AX, (2S,3R,4R,5S,6R)-2-(2-((but-2-ynyloxy)methyl)-4-chloro-5-(4-ethylbenzyl)phenyl)-6-(hydroxymethyl)tetrahydro-2H-pyran-3,4,5-triol]: the IC50 was less than 1 µM at human SGLT2 (setting [2]) and more than 10 µM on human SGLT1 (setting [2]).

For the compound `CC#CCOCc1cc(Cl)c(Cc2ccc(OCC)cc2)cc1[C@@H]1O[C@H](CO)[C@@H](O)[C@H](O)[C@H]1O` [Compound AY, (2S,3R,4R,5S,6R)-2-(2-((but-2-ynyloxy)methyl)-4-chloro-5-(4-ethoxybenzyl)phenyl)-6-(hydroxymethyl)tetrahydro-2H-pyran-3,4,5-triol], the IC50 on human SGLT2 (setting [1]) is less than 1 µM; at human SGLT1 (setting [1]), more than 10 µM.

For `C=CCOCc1cc(Cl)c(Cc2ccc(OCC)cc2)cc1[C@@H]1O[C@H](CO)[C@@H](O)[C@H](O)[C@H]1O` [Compound AZ, (2S,3R,4R,5S,6R)-2-(2-(allyloxymethyl)-4-chloro-5-(4-ethoxybenzyl)phenyl)-6-(hydroxymethyl)tetrahydro-2H-pyran-3,4,5-triol], the IC50 on human SGLT2 (setting [1]) is less than 1 µM; on human SGLT1 (setting [1]), more than 10 µM.

With `CC#CCOCc1cc(Cl)c(Cc2ccc(OC)cc2)cc1[C@@H]1O[C@H](CO)[C@@H](O)[C@H](O)[C@H]1O` [Compound BA, (2S,3R,4R,5S,6R)-2-(2-((but-2-ynyloxy)methyl)-4-chloro-5-(4-methoxybenzyl)phenyl)-6-(hydroxymethyl)tetrahydro-2H-pyran-3,4,5-triol], the IC50 at human SGLT2 (setting [2]) was less than 1 µM; at human SGLT1 (setting [2]), more than 10 µM.
